“Also recorded” adds a separate entry of the source. Where a SMILES comes first, the peptide text is derived from it. Bridges are numbered along the chain shown (N, C = ends).
How the values were obtained:
[1] = remaining peptide by RP-HPLC, n = 6
Method: (§1) Figure 3 Stability and activity of MccJ25 in different conditions and biological fluids. Various concentration of MccJ25 was incubated with different temperatures (A), pH values (B), (C) SIF, SGF, and serum. Proteases (D-F) for different indicated times. Afterwards, the amount of the remaining MccJ25 was determined by RP-HPLC. […] NE: negative control; Chy: chymotrypsin. […] Effects of temperature (G), RT: room temperature, pH values (H), proteases (I), SGF (J), SIF (K), and serum (L) on the inhibition of E coli K88 by MccJ25. The zone of inhibition is often used to clarify the antimicrobial activity of MccJ25. […] Chy refers to chymotrypsin. Data are presented as the mean of 6 biological replicates ± standard error of mean form.

IPEC-J2 cells = conditions: previous study; ref [29]; cited from earlier work
Text: Microcins, AMPs, are a large class of antimicrobial agents that can be employed in the treatment of various infectious diseases. […] Cytotoxicity, including the hemolysis of erythrocytes, is one of the main factors limiting the practical application of AMPs. Therefore, it is crucial to have a clear understanding of the c ...

in vitro [2] = assay: in vitro
Method: (§2) The simulated gastric fluid (SGF) and simulated intestinal fluid (SIF) were mainly based on the relevant contents of the Chinese Pharmacopoeia as described previously ([26]). SGF was configurated with 10 mg/mL pepsin, 0.03 M NaCl was used to blend the pH to 1.5, while SIF was configured with 10 mg/mL trypsin, 0.05 M KH2PO4 was used to blended pH as 7. SGF and SIF were then measured separately, and the antimicrobial activity of MccJ25 in serum was determined. E. coli K88 cells were grown in MHB (Difco Laboratories, Detroit, MI, USA). In short, 1 mL of the bacterial suspension and MccJ25 were transferred into 9 mL of medium. The control group was as follows: no MccJ25 was added to it. E. coli K88 cells with a live cell count maintained at approximately 10^5 cells per milliliter were inoculated on LB agar, which was then poured into plates equipped with Oxford cups, thus forming wells. Then, MccJ25 (1 × MIC) previously treated with SGF, SIF and serum for 2, 4, and 6 h was added to these wells. One of the agar substances covering the wells needs to be incubated overnight at 37°C, and finally, the size of its growth inhibition area, i.e., the diameter, needs to be determined.
as §1

RAW264.7 cells [3] = conditions: 2 to 512 μg/mL MccJ25, 24 h, 37°C; n = 6
Method: (§3) Certain adjustments were made to Dulbecco’s modified Eagle’s medium (DMEM), i.e., 20% fetal bovine serum (FBS) was added, and human colon cancer cell line Caco-2 and murine cell line macrophage RAW264.7 cells were inoculated into the adjusted medium, with the inoculum density maintained at 2 × 10^4 cells/mL, placed in 96-well plates until the overall confluence ratio reached 80% to 90%, respectively.
(§4) The secretion of the cell membrane enzyme lactate dehydrogenase (LDH) was measured on the basis of a colorimetric assay. Caco-2 and RAW264.7 cells (2 × 10^4 cells/well) as controls without or with concentrations of 2 to 512 μg/mL MccJ25 were incubated for 24 h at 37°C in 5% CO2. A simple step was to transfer 100 μL of cell culture medium from each well to a new 96-well plate and measure the activity of LDH based on the LDH cytotoxicity assay kit (Clontech, Mountain View, CA, USA) according to the manufacturer’s instructions. The catalyst and dye solutions were mixed well and added to the wells containing cell culture medium and then incubated for 30 min at room temperature. The absorbance at 490 and 670 nm was measured with a microplate reader (Model SynergyMx, BioTek, Winooski, VT, USA). Absorbance values were corrected by subtracting the […].

Caco-2 cells [4] = conditions: 2 to 512 μg/mL MccJ25, 24 h, 37°C; n = 6
Method: as §3, §4

chymotrypsin = assay: in vitro; conditions: RP-HPLC
Method: (§5) The resistance of MccJ25 to pepsin, trypsin and chymotrypsin was evaluated based on previous studies ([26]), with minor modifications. E. coli K88 cells were prepared (approximately 1 × 10^7 CFU/mL), and 1 mL of the bacterial suspension and MccJ25 were transferred into 9 mL of medium. For the control, MccJ25 was not added. LB agar inoculated with E. coli K88 cells (~10^5 viable cells/mL) was poured onto a plate containing an Oxford cup to form individual wells. Then, 2 and 4 h MccJ25 (1 × MIC) previously subjected to different treatments were added to the wells. The agar overlay was incubated overnight at 37°C, and the diameter of the growth inhibition zone was measured.
as §1

in vitro [5] = assay: in vitro; remark: listed apart in the source
Method: as §5, §1

RAW264.7 cells [6] = assay: MTT cytotoxicity assay; type: cell-based, murine; conditions: different concentrations of MccJ25 up to 512 μg/mL, 24 h, 37°C; vs control; n = 6
Method: (§6) To test whether MccJ25 could have an effect on the metabolic activity of the cells, the necessary MTT assay was performed (Roche Molecular Biochemistry, Mannheim, Germany) as previously described ([28], [29]). The whole operation process can be briefly summarized as follows: first, various concentration gradients of MccJ25 solution were added, the ambient temperature of the cell secondary incubation was maintained at 37°C, the CO2 concentration was maintained at 5%, and the incubation time needed to reach 24 h. The control group was the cells without any treatment. Afterwards, 20 μL of MTT solution (concentration 5 mg/mL, medium DPBS) was added to all wells and incubated for 3.5 h at a temperature of 37°C and a CO2 concentration of 5%. Components of the medium were removed by centrifugation, and the MTT metabolites were resuspended in 200 μL of dimethyl sulfoxide. The absorbance value at 560 nm was measured, and the background value was the absorbance at 670 nm, which needed to be subtracted from the background value to obtain the absorbance value.

pig erythrocytes (pRBCs) = conditions: 512 μg/mL (highest concentration), 8% RBCs in PBS, 37°C, 1 h, A414
Method: (§7) Fresh mouse/pig erythrocytes (mRBCs/pRBCs) were collected from well-grown animals, centrifuged at 4,200 rpm and washed well with phosphate-buffered saline (PBS) to ensure that their supernatants were free of impurities and remained clear. The liquid was added to the 96-well plate after 2-fold dilution of MccJ25 prepared with PBS, and the final concentration of RBCs was introduced at 8%. The plate was stirred less vigorously to homogenize the liquid and incubated at 37°C for 1 h. The supernatant was then centrifuged at 4,500 rpm for 10 min, and its absorbance value at 414 nm was measured. Three replicate groups were set up for all the above experiments, and the percentage hemolysis was calculated as follows: percentage hemolysis = [(A414 in peptide solution - A414 in PBS)/(A414 in […] - A414 in PBS)]. ×100, where 100% hemolysis refers to the absorbance of RBCs exposed to 1% Triton X-100 in the environment and 0% hemolysis refers to the absorbance of RBCs exposed to PBS. The positive control used in this experiment was melittin.

[7] = tested on: mouse erythrocytes (mRBCs); conditions: 512 μg/mL (highest concentration), 8% RBCs in PBS, 37°C, 1 h, A414
Method: as §7

Caco-2 cells [8] = assay: MTT cytotoxicity assay; type: cell-based, human; conditions: different concentrations of MccJ25 up to 512 μg/mL, 24 h, 37°C; vs control; n = 6
Method: as §6

[9] = RP-HPLC
Method: as §2
Figure 3 Stability and activity of MccJ25 in different conditions and biological fluids. […] Afterwards, the amount of the remaining MccJ25 was determined by RP-HPLC. […]

E. coli K88 [10] = assay: MIC variability (cross-resistance) after 5 days at sub-MIC; type: cell-based; conditions: after culture under ampicillin (0.25 × MIC) for 5 days
Method: A 1:100 dilution of the bacteria was performed daily in the above MHB. Aliquots of the culture medium were used daily for 5 days thereafter to determine the MICs of ampicillin, tetracycline, aureomycin, and kanamycin. This study was performed based on our previous study ([29]).

E. coli K88 [11] = type: cell-based; conditions: sublethal levels, daily sequential passages
Method: To quantify the production status of the bacteria, the bacterial density was measured after incubating for 24 h. Cultures with the second highest concentration allowed to grow (OD600 ≥ 2) were diluted 1:100 with MccJ25 MHB at different concentrations than those described above. Cultures that grew above the indicated MIC levels were plated on LB agar plates, and their MIC levels were determined by the broth macrodilution method.

## CC[C@H](C)[C@H](NC(=O)CNC(=O)[C@@H](NC(=O)[C@H](Cc1ccccc1)NC(=O)[C@H](Cc1ccc(O)cc1)NC(=O)[C@@H]1CCC(=O)NCC(=O)NCC(=O)N[C@@H](C)C(=O)NCC(=O)N[C@@H](Cc2cnc[nH]2)C(=O)N[C@@H](C(C)C)C(=O)N2CCC[C@H]2C(=O)N1)C(C)C)C(=O)NCC(=O)N[C@H](C(=O)N1CCC[C@H]1C(=O)N[C@H](C(=O)N[C@@H](CO)C(=O)N[C@@H](Cc1ccccc1)C(=O)N[C@@H](Cc1ccc(O)cc1)C(=O)NCC(=O)O)[C@@H](C)CC)[C@@H](C)O [MccJ25, microcin J25] (GGAGHVPEYFVGIGTPISFYG-OH; lactam N-8)
[1]; 121°C, 20 min
  stability of intact MccJ25 at high temperature: able to maintain its own steady state
[1]; pH 2.0 to 9.0, 2 h
  stability of intact MccJ25 at different pH: able to maintain its own steady state
IPEC-J2 cells
  cytotoxicity: not cytotoxic
In vitro [2]; 6 h, RP-HPLC
  intact MccJ25 after 6 h of incubation in serum: still present
In vitro [2]; SIF pH 7, 10 mg/mL trypsin, 6 h, RP-HPLC
  intact MccJ25 after 6 h of incubation in SIF: still present
In vitro [2]; mouse, serum
  half-life: 4 h
In vitro [2]; simulated intestinal fluid (SIF) with 10 mg/mL trypsin, pH 7
  half-life: 2 h
RAW264.7 cells [3]
  LDH activity (plasma membrane integrity): did not stimulate LDH activity
Caco-2 cells [4]
  LDH activity (plasma membrane integrity): did not stimulate LDH activity
chymotrypsin; 2 and 4 h
  level of intact MccJ25 exposed to chymotrypsin: below the detection limit
chymotrypsin; after 6 h
  intact MccJ25 after exposure to chymotrypsin: below the detection limit
In vitro [5]; chymotrypsin (isolated protease)
  metabolised at 1 h: 70%
In vitro [5]; pepsin (isolated protease)
  remaining at 6 h: > 70%
In vitro [5]; trypsin (isolated protease)
  remaining at 6 h: > 70%
RAW264.7 cells [6]
  cell viability (MTT): nontoxic; also recorded: no significant differences in cell survival
Pig erythrocytes (pRBCs)
  hemolysis: 4.07%
[7]
  hemolysis: 4.16%
Caco-2 cells [8]
  cell viability (MTT): nontoxic; also recorded: no significant differences in cell survival
[9]; SGF pH 1.5, 10 mg/mL pepsin, 6 h
  intact MccJ25 after 6 h of incubation in SGF: still present
[9]; SGF: 10 mg/mL pepsin, 0.03 M NaCl, pH 1.5, up to 6 h, n = 6
  concentration of intact MccJ25 in SGF: decreased slowly

## CC1(C)S[C@@H]2[C@H](NC(=O)[C@H](N)c3ccccc3)C(=O)N2[C@H]1C(=O)O [ampicillin]
E. coli K88 [10]
  elevation of the MIC of the antibiotic: 2 fold
E. coli K88 [11]
  time of serial passage until resistance: ≤ 4 days

## NC[C@H]1O[C@H](O[C@H]2[C@H](O)[C@@H](O[C@H]3O[C@H](CO)[C@@H](O)[C@H](N)[C@H]3O)[C@H](N)C[C@@H]2N)[C@H](O)[C@@H](O)[C@@H]1O [kanamycin]
E. coli K88 [10]
  elevation of the MIC of the antibiotic: 2 fold

## CN(C)[C@@H]1C(O)=C(C(N)=O)C(=O)[C@@]2(O)C(O)=C3C(=O)c4c(O)cccc4[C@@](C)(O)[C@H]3C[C@@H]12 [tetracycline]
E. coli K88 [10]
  elevation of the MIC of the antibiotic: 2 fold
E. coli K88 [11]
  time of serial passage until resistance: ≤ 3 days

## O=C(O)c1cn(C2CC2)c2cc(N3CCNCC3)c(F)cc2c1=O [ciprofloxacin]
E. coli K88 [10]
  elevation of the MIC of the antibiotic: 2 fold
